In experiment [1] the target is T1, human GST-DYRK1A (Homo sapiens, UniProt Q13627).
T1 construct: purified human GST-DYRK1A (full length, Thermo Scientifics) enzyme; purchased Thermo Scientifics
Description: GST-DYRK1A enzyme inhibition, ADP-Glo kinase assay. Format: biochemical. Conditions: ATP 10 μM, GST-DYRK1A full length, read-out: DYRK1 IC50. Here is the method:
(§1) To evaluate an inhibitory activity of the compound according to the present invention against LRRK2, LRRK2 (G2019S), DYRK1, CLK1, and TTK kinases, experiments were performed as follows.
(§2) Each of the Example compounds was reacted with a purified human GST-DYRK1A (full length, Thermo Scientifics) enzyme to evaluate an ability to inhibit an enzyme using a method as described below. A composition of 40 mM Tris-HCl (pH 7.4), 20 mM MgCl2, 0.5 mg/mL BSA, and 50 μM DTT was used as a reaction buffer, and all reactions of test substances were performed in the reaction buffer. In the test, purified ATP (10 μM) and a specific substrate solution were reacted with a human GST-DYRK1A (full length, 10 ng) enzyme at 25° C. for an hour, and the enzyme activities were then determined using an in vitro ADP-Glo™ kinase assay (Promega). An enzyme-activity reaction solution, an ADP-Glo reaction solution, and an enzyme-ability detection solution were reacted at a ratio of 2:2:1 to measure a degree of inhibition of the enzyme activity with luminescence. The degree of inhibition of the enzyme activity according to the treatment concentration of each of the compounds was calculated based on the fluorescence of the enzyme activity of the solvent control which was not treated with the compound. In this case, the concentration of each of the compounds inhibiting 50% of the enzyme activity was determined to be an IC50 (nM) value, and the IC50 (nM) value of each of the compounds was determined from 3 sets of data, and calculated using Prism (Version 5.01; GraphPad) software.
On the technique in general: ADP-Glo turns the ADP formed in a reaction into a luminescent signal.

The target in experiment [2] is T2, human GST-CLK1 (Homo sapiens, UniProt P49759).
T2 construct: purified human GST-CLK1 (129-end, SignalChem) enzyme; purchased SignalChem
Description: GST-CLK1 enzyme inhibition, ADP-Glo kinase assay. Format: biochemical. The conditions noted are these: ATP 10 μM, GST-CLK1 129-end. Here is the method: as §1
as §2, with “GST-CLK1 (129-end, SignalChem)” for “GST-DYRK1A (full length, Thermo Scientifics)”, “GST-CLK1 (129-end, 3” for “GST-DYRK1A (full length, 10”, “value. The” for “value, and the”

Each structure is given as a SMILES string.

By IC50 is commonly meant the concentration that inhibits the measured activity by half.

T2 sequence (P49759 129-484 limits assumed): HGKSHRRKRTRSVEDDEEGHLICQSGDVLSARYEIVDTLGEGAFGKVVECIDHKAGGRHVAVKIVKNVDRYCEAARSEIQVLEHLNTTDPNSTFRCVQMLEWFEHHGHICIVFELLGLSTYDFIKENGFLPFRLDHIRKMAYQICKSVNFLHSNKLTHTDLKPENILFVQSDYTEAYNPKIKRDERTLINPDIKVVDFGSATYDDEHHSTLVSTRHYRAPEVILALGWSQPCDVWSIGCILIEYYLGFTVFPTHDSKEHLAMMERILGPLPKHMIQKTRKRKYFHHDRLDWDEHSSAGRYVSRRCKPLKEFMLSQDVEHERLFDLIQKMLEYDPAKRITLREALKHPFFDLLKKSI

With `COc1cc(P2(=O)CCN(C3CC3)CC2)ccc1Nc1nc(NCCS(C)(=O)=O)c2c(C#N)c[nH]c2n1` [Example 310, 2-((4-(1-cycloproopyl-4-oxido-1,4-azaphosphinan-4-yl)-2-methoxyphenyl)a-mino)-4-((2-(methylsulfonyl)ethyl)amino)-7H-pyrrolo[2,3-d]pyrimidine-5-carbonitrile], the values for the half-maximal inhibitory concentration (IC50) in experiment [1] and in experiment [2] were 0.301 to 1 µM and 0.101 to 0.3 µM, respectively.
On the same counts, the results for `CCNc1nc(Nc2ccc(C(=O)N3CCOCC3)c3c2OCC3)nc2[nH]cc(C(F)(F)F)c12` [Example 437, (7-((4-(ethylamino)-5-(trifluoromethyl)-7H-pyrrolo[2,3-d]pyrimidin-2-yl)amino)-2,3-dihydrobenzo-furan-4-yl) (morpholino) methanone] are below 0.1 µM and below 0.1 µM.
On the same counts, the results for `COc1cc(P2(=O)CCN(C3COC3)CC2)ccc1Nc1nc(NCC(C)C)c2c(C#N)c[nH]c2n1` [Example 291, 4-(isobutyl-amino)-2-((2-methoxy-4-(1-(oxetan-3-yl)-4-oxido-1,4-azaphosphinan-4-yl)phenyl)amino)-7H-pyrrolo[2,3-d]pyrimidine-5-carbonitrile] are 0.301 to 1 µM and 0.101 to 0.3 µM.
On the same counts, the results for `CCCCNc1nc(Nc2ccc(C(=O)N3CC(CO)(CO)C3)c3c2OCCO3)nc2[nH]cc(C#N)c12` [Example 341, 2-((8-(3,3-bis (hydroxymethyl)azetidine-1-carbonyl)-2,3-dihydrobenzo [b][1,4]dioxin-5-yl)amino)-4-(butylamino)-7H-pyrrolo[2,3-d]pyrimidine-5-carbonitrile] are 0.301 to 1 µM and below 0.1 µM.
Turning to `CCCNc1nc(Nc2ccc(P3(=O)CCN(C4CC4)CC3)cc2OC)nc2[nH]cc(C#N)c12` [Example 282, 2-((4-(1-cyclopropyl-4-oxido-1,4-azaphosphinan-4-yl)-2-methoxyphenyl)amino)-4-(propylamino)-7H-pyrrolo[2,3-d]pyrimidine-5-carbonitrile], the IC50 lay within 0.301 to 1 µM in experiment [1] and 0.101 to 0.3 µM in experiment [2].
Turning to `CC[C@@H](C)Nc1nc(Nc2ccc(S(C)(=O)=O)cc2OC)nc2[nH]cc(C#N)c12` [Example 262, (R)-4-(sec-butylamino)-2-((2-methoxy-4-(methylsulfonyl)phenyl)amino)-7H-pyrrolo[2,3-d]pyrimidine-5-carbonitrile], the IC50 in experiment [1] and in experiment [2] was 0.301 to 1 µM throughout.
For `COCCNc1nc(Nc2ccc(P(C)(C)=O)cc2OC)nc2[nH]cc(C#N)c12` [Example 115, 2-((4-(dimethylphosphoryl)-2-methoxyphenyl)amino)-4-((2-methoxyethyl)amino)-7H-pyrrolo[2,3-d]pyrimidine-5-carbonitrile], the figures for the 50% inhibitory concentration (IC50) in experiment [1] and in experiment [2] were 0.301 to 1 µM and below 0.1 µM, respectively.
On the same counts, the results for `COc1cc(P2(=O)CCN(C3CC3)CC2)ccc1Nc1nc(NCC(C)C)c2c(C#N)c[nH]c2n1` [Example 290, 2-((4-(1-cyclopropyl-4-oxido-1,4-azaphosphinan-4-yl)-2-methoxyphenyl)a-mino)-4-(isobutylamino)-7H-pyrrolo[2,3-d]pyrimidine-5-carbonitrile] are 0.301 to 1 µM and 0.301 to 1 µM.
On the same counts, the results for `COc1cc(P2(=O)CCN(C3COC3)CC2)ccc1Nc1nc(NCC2CC2)c2c(C#N)c[nH]c2n1` [Example 305, 4-((cyclo-propylmeth-yl)amino)-2-((2-methoxy-4-(1-(oxetan-3-yl)-4-oxido-1,4-azaphosphinan-4-yl)phenyl)amino)-7H-pyrrolo[2,3-d]pyrimidine-5-carbonitrile] are 0.101 to 0.3 µM and below 0.1 µM.
On the same counts, the results for `CCNc1nc(Nc2ccc(C(=O)N3CCC(N4CCOCC4)CC3)c3c2OCCO3)nc2[nH]cc(C#N)c12` [Example 258, 4-(ethylamino)-2-((8-(4-morpholinopiperidine-1-carbonyl)-2,3-dihydrobenzo[b][1,4]dioxin-5-yl)amino)-7H-pyrrolo[2,3-d]pyrimidine-5-carbonitrile] are 0.301 to 1 µM and below 0.1 µM.
For the compound `COc1cc(P2(=O)CCN(C3COC3)CC2)ccc1Nc1nc(NC2CCCCC2)c2cc[nH]c2n1` [Example 240, 4-(4-((4-(cyclohexylamino)-7H-pyrrolo[2,3-d]pyrimidin-2-yl)amino)-3-methoxyphenyl)-1-(oxetan-3-yl)-1,4-azaphosphinane 4-oxide], the 50% inhibitory concentration (IC50) in experiment [1] and in experiment [2] was 0.301 to 1 µM in each case.
As to `CCCNc1nc(Nc2ccc(C(=O)N3CCOCC3)c3c2OCC3)nc2[nH]cc(C#N)c12` [Example 348, 2-((4-(morpholine-4-carbonyl)-2,3-dihydrobenzo-furan-7-yl)amino)-4-(propylamino)-7H-pyrrolo[2,3-d]pyrimidine-5-carbonitrile], the half-maximal inhibitory concentration (IC50) in experiment [1] was 0.301 to 1 µM; in experiment [2], below 0.1 µM.
On the same counts, the results for `COc1cc(P(C)(C)=O)ccc1Nc1nc(NCC2CCCC2)c2c(C#N)c[nH]c2n1` [Example 274, 4-((cyclopentylmethyl)amino)-2-((4-(dimethylphosphoryl)-2-methoxyphenyl)amino)-7H-pyrrolo[2,3-d]pyrimidine-5-carbonitrile] are 0.301 to 1 µM and 0.301 to 1 µM.
On the same counts, the results for `N#Cc1c[nH]c2nc(Nc3ccc(C(=O)N4CC(CO)(CO)C4)c4c3OCCO4)nc(NCC3CCC3)c12` [Example 339, 2-((8-(3,3-bis (hydroxymethyl)azetidine-1-carbonyl)-2,3-dihydrobenzo [b][1,4]dioxin-5-yl)amino)-4-((cyclobutyl-methyl)amino)-7H-pyrrolo[2,3-d]pyrimidine-5-carbonitrile] are 0.301 to 1 µM and below 0.1 µM.
On the same counts, the results for `CC(C)CNc1nc(Nc2ccc(C(=O)N3CCOCC3)c3c2OCC3)nc2[nH]cc(C#N)c12` [Example 350, 4-(isobutyl-amino)-2-((4-(morpholine-4-carbonyl)-2,3-dihydrobenzo-furan-7-yl)amino)-7H-pyrrolo[2,3-d]pyrimidine-5-carbonitrile] are 0.301 to 1 µM and below 0.1 µM.
For `CCCNc1nc(Nc2ccc(P3(=O)CCN(C4COC4)CC3)cc2OC)nc2[nH]cc(C#N)c12` [Example 283, 2-((2-methoxy-4-(1-(oxetan-3-yl)-4-oxido-1,4-azaphosphinan-4-yl)phenyl)amino)-4-(propylamino)-7H-pyrrolo[2,3-d]pyrimidine-5-carbonitrile], the IC50 in experiment [1] was in the range of 0.301 to 1 µM; in experiment [2] it was 0.101 to 0.3 µM.
As for `COc1cc(P(C)(C)=O)ccc1Nc1nc(NC(C)C)c2c(C#N)c[nH]c2n1` [Example 114, 2-((4-(dimethylphosphoryl)-2-methoxyphenyl)amino)-4-(isopropylamino)-7H-pyrrolo[2,3-d]pyrimidine-5-carbonitrile], the concentration for half-maximal inhibition (IC50) in experiment [1] and in experiment [2] was 0.301 to 1 µM throughout.
For the compound `COc1cc(P2(=O)CCN(C3CC3)CC2)ccc1Nc1nc(NCC2CCCC2)c2c(C#N)c[nH]c2n1` [Example 308, 4-((cyclo-pentylmeth-yl)amino)-2-((4-(1-cyclopropyl-4-oxido-1,4-azaphosphinan-4-yl)-2-methoxyphenyl)a-mino)-7H-pyrrolo[2,3-d]pyrimidine-5-carbonitrile], the IC50 in experiment [1] and in experiment [2] was 0.301 to 1 µM each time.
With `CS(=O)(=O)CCNc1nc(Nc2ccc(C(=O)N3CCOCC3)c3c2OCC3)nc2[nH]cc(C#N)c12` [Example 344, 4-((2-(methyl-sulfonyl)eth-yl)amino)-2-((4-(morpholine-4-carbonyl)-2,3-dihydrobenzo-furan-7-yl)amino)-7H-pyrrolo[2,3-d]pyrimidine-5-carbonitrile], the IC50 in experiment [1] was 0.301 to 1 µM; in experiment [2] it was below 0.1 µM.
On the same counts, the results for `COc1cc(P(C)(C)=O)ccc1Nc1nc(N[C@@H]2CCOC2)c2c(C#N)c[nH]c2n1` [Example 270, (R)-2-((4-(dimethylphosphoryl)-2-methoxyphenyl)amino)-4-((tetrahydrofuran-3-yl)amino)-7H-pyrrolo[2,3-d]pyrimidine-5-carbonitrile] are 0.301 to 1 µM and 0.301 to 1 µM.

Source of the values: US20230066011A1, “PYRROLOPYRIMIDINE DERIVATIVE, AND PHARMACEUTICAL COMPOSITION FOR PREVENTING OR TREATING PROTEIN KINASE-RELATED DISEASE COMPRISING SAME AS ACTIVE INGREDIENT” (VORONOI CO., LTD., priority 2019, published 2023).
